BigSolDB 2.1

Settings: 298.15 K

O=C(O)c1ccc(Cl)c(Cl)c1
Settings	solubility (mole fraction)
in 1,4-dioxane	0.0493
in 2-butoxyethanol	0.0399
in 2-ethoxyethanol	0.0445
in 2-isopropoxyethanol	0.0483
in 2-methyl-1-butanol	0.0183
in 2-methyl-1-pentanol	0.0239
in 2-pentanol	0.0248
in 2-propoxyethanol	0.0468
in 3-methoxy-1-butanol	0.0503
in 4-methyl-2-pentanol	0.0255
in MTBE	0.0358
in THF	0.101
in dibutyl ether	0.00969
in diethyl ether	0.0308
in diisopropyl ether	0.0126
in ethanol	0.0173
in ethyl acetate	0.0164
in isobutanol	0.0139
in isopentanol	0.0216
in isopropanol	0.0177
in methyl acetate	0.0119
in methyl butyrate	0.0143
in n-butanol	0.0203
in n-butyl acetate	0.0206
in n-heptanol	0.0251
in n-hexanol	0.0238
in n-octanol	0.0242
in n-pentanol	0.0218
in n-pentyl acetate	0.0216
in n-propanol	0.0185
in n-propyl acetate	0.0176
in sec-butanol	0.019
in tert-butanol	0.0345
